Laboratory results as given in patent US10457662B2, “Substituted amides for treating and preventing cancer” (The Regents of the University of Michigan, priority 2015, dated 2019).
Read-outs that look alike come from different tables or passages of the source.

How the values were obtained:
SNU387 = experiment: MTT assay, SNU387; type: cell-based; conditions: Homo sapiens, SNU-387, HCC cell line
Protocol: (§1) In order to understand its potential selectivity for different types of cancer and choose the best model for further characterization, QN523 was tested in a panel of 12 cancer cell lines with various genetic and pathological backgrounds (Table 2). […] Because of remarkable potency of QN-523 in pancreatic cancer in-depth preclinical studies in this disease model were performed.

HepG2 = experiment: MTT assay, HepG2; type: cell-based; conditions: Homo sapiens, HCC cell line
Protocol: as §1

PDAC cell lines = experiment: Colony formation assay, three pancreatic cancer cell lines; type: cell-based; conditions: 1 μM; all three cell lines; 24 h treatment
Text: A) QN523 inhibits colony formation in PDAC cell lines. […] Data points represent Mean±SD from three independent experiments.
The cytotoxicity of QN523 was further evaluated in three pancreatic cancer cell lines using colony formation assay. Using numbers and sizes of colonies as the experimental readout, this long-term assay estimates both anti-proliferative and cytotoxic effect.

MiaPaCa-2 cells [1] = experiment: DAVID analysis of Bru-seq gene lists; conditions: genes changed at least 2 fold
Protocol: Histogram represents statistical significance in regulation of the indicated theme.
The lists were also analyzed by Database for Annotation, Visualization and Integrated Discovery (DAVID), which identify enriched biological themes with particular focus on gene ontology terms, as well as functional-related gene groups (see, e.g., Huang da W, Sherman B T, Lempicki R A (2009) Nature protocols 4(1): 44-57; Huang da W, Sherman B T, Lempicki R A (2009) Nucleic acids research 37(1): 1-13). […] In addition, induction of apoptosis and disruption of cell cycle might be important cellular events contributing to cytotoxicity of QN523.
Top functional terms identified by DAVID are reported.

Hep3B = experiment: MTT assay, Hep3B; type: cell-based; conditions: Homo sapiens, HCC cell line
Protocol: as §1

Jurkat = experiment: MTT assay, Jurkat; type: cell-based; conditions: Homo sapiens, leukemia cell line
Protocol: as §1

[2] = test system: three pancreatic cancer cell lines; experiment: MTT assay, three pancreatic cancer cell lines; type: cell-based; conditions: read-out: Mark: IC50 lower than 1 μM in at least one cell line, Table 1
MiaPaCa-2 cells [3] = experiment: Bru-seq analysis of RNA synthesis in MiaPaCa-2; type: cell-based; conditions: 1 μM
Protocol: In order to understand the mechanism of action for QN523 in pancreatic cancer, Bru-seq was performed to evaluate global changes in gene synthesis after QN523 treatment. […] During this time, the cells begin initiating cascade of pharmacological events unique to these compounds. However, cell death pathways will be initiated at later time points well beyond 24 hrs. Therefore, the Bru-seq experiments were performed after 24 hrs drug (1 μM) exposure. Using RPKM>0.5, gene size >300 bp as the cut off values to eliminate background noises, there were totally 8521 expressed genes in the QN523 and DMSO control samples out of around 22,000 genes in the reference genome.
Bru-seq data from QN523 treatment (1 uM, 24 h) and vehicle controls in MiaPaCa-2 was processed by filtering for genes with RPKM>0.5, gene size >300 bp. Expressed genes were then preranked according to fold change comparing to control and subjected to analysis.

SNU398 = experiment: MTT assay, SNU398; type: cell-based; conditions: Homo sapiens, SNU-398, HCC cell line
Protocol: as §1

BxPC-3 = experiment: MTT assay, BxPC-3; type: cell-based; conditions: Homo sapiens
Protocol: Experiments conducted during the course of developing embodiments for the present invention involved performance of a phenotypic screen of a library of 20,000 small-molecules representing five million compounds. […] Subsequently, a lead optimization campaign was performed to synthesize a series of close analogs. Initially, the 50 analogs were tested in three pancreatic cancer cell lines using MTT assay (Table 1).
For in vitro studies, compounds were dissolved in DMSO at 10 mM as stock solutions and stored at −20° C. For in vivo studies, QN523 was dissolved in a vehicle containing 5% DMSO, 35% propylene glycol and 60% saline, and administered at 100 uL through intraperitoneal injections.

GRP78, CHOP, ATF3, GDF15 = experiment: Western blotting of stress responsive proteins in MiaPaCa-2; type: cell-based; conditions: 72 h, western blotting
Protocol: FIG. 11: QN523 induces protein expression of stress markers dose-dependently.
This example describes the validation of biomarkers GDF15, ATF3, DDIT3, HSPA5, WIPI1, GABARAPL1 and MAP1LC3B in pancreatic cancer cell lines. To validate the findings from bioinformatics analysis basing on Bru-seq experiments, the proposed biomarkers were further tested in pancreatic cancer cell lines. […] However, the potency of Sulindac is much lower than that of QN523, with IC50 of 300 μM in MiaPaCa-2.
In addition, primary antibodies for LC3B, survivin, cyclin D1, Stat3 and phosphorylated Stat3 (Y705) are from Cell Signaling Technology.

HCT116 p53+/+ = experiment: MTT assay, HCT116 p53+/+; type: cell-based; conditions: Homo sapiens, HCT-116, MTT assay; colorectal cancer cell line
Protocol: as §1

Ovcar 8 = experiment: MTT assay, Ovcar 8; type: cell-based; conditions: Homo sapiens
Protocol: as §1

With `O=C(Nc1cccc2cccnc12)c1cnccn1` [QN523, Pyrazine-2-carboxylic acid quinolin-8-ylamide] as the molecule, how does the IC50 (SNU387) read?
The IC50 was 5.73 µM.

What about the IC50 (HepG2) of the same molecule?
The IC50 was 500 nM.

And the “inhibition of colony formation” value (PDAC cell lines)?
The value was “Complete inhibition of colony formation”.

And the biological themes downregulated (MiaPaCa-2 cells [1])?
Its biological themes downregulated is “chromosomal proteins and cell cycle genes”.

And the biological themes upregulated (MiaPaCa-2 cells [1])?
The biological themes upregulated was “Apoptosis, (bZIP) transcription factors, ER related genes and stress responses”.

And the IC50 (Hep3B)?
Its IC50 is 210 nM.

What about the IC50 (Jurkat) of the same molecule?
The IC50 was about 100 nM.

What about the IC50 [2] of the same molecule?
The IC50 was under 1000 nM.

And the “number of genes downregulated” value (MiaPaCa-2 cells [3]; 24 h, of 8521 expressed genes)?
Its value is 123 genes.

What about the “number of genes upregulated more than two fold” value (MiaPaCa-2 cells [3]; 24 h, of 8521 expressed genes) of the same molecule?
The value was 275 genes.

What about the “Fold Change ATF3” value (MiaPaCa-2 cells [3]; RNA synthesis, 24 h vs control) of the same molecule?
Its value is 22.1 fold.

And the “Fold Change AURKAIP1” value (MiaPaCa-2 cells [3]; RNA synthesis, 24 h vs control)?
Its value is −2.3 fold.

What about the “Fold Change C9orf140” value (MiaPaCa-2 cells [3]; RNA synthesis, 24 h vs control) of the same molecule?
Its value is −2.5 fold.

What about the “Fold Change C17orf62” value (MiaPaCa-2 cells [3]; RNA synthesis, 24 h vs control) of the same molecule?
Its value is −2.5 fold.

What about the “Fold Change C19orf60” value (MiaPaCa-2 cells [3]; RNA synthesis, 24 h vs control) of the same molecule?
The value was −2.3 fold.

What about the “Fold Change C19orf76” value (MiaPaCa-2 cells [3]; RNA synthesis, 24 h vs control) of the same molecule?
Its value is −2.3 fold.

And the “Fold Change CCDC85C” value (MiaPaCa-2 cells [3]; RNA synthesis, 24 h vs control)?
Its value is −2.4 fold.

And the “Fold Change CCNG2” value (MiaPaCa-2 cells [3]; RNA synthesis, 24 h vs control)?
Its value is 6.6 fold.

What about the “Fold Change CD55” value (MiaPaCa-2 cells [3]; RNA synthesis, 24 h vs control) of the same molecule?
The value was 6.3 fold.

What about the “Fold Change CXCL3” value (MiaPaCa-2 cells [3]; RNA synthesis, 24 h vs control) of the same molecule?
The value was 11.1 fold.

And the “Fold Change DDIT3” value (MiaPaCa-2 cells [3]; RNA synthesis, 24 h vs control)?
Its value is 10.7 fold.

What about the “Fold Change DNAJB9” value (MiaPaCa-2 cells [3]; RNA synthesis, 24 h vs control) of the same molecule?
Its value is 7.8 fold.

What about the “Fold Change FAM129A” value (MiaPaCa-2 cells [3]; RNA synthesis, 24 h vs control) of the same molecule?
The value was 16.0 fold.

What about the “Fold Change FASN” value (MiaPaCa-2 cells [3]; RNA synthesis, 24 h vs control) of the same molecule?
The value was −2.4 fold.

And the “Fold Change GABARAPL1” value (MiaPaCa-2 cells [3]; RNA synthesis, 24 h vs control)?
Its value is 8.2 fold.

What about the “Fold Change HERPUD1” value (MiaPaCa-2 cells [3]; RNA synthesis, 24 h vs control) of the same molecule?
Its value is 10.0 fold.

What about the “Fold Change HMOX1” value (MiaPaCa-2 cells [3]; RNA synthesis, 24 h vs control) of the same molecule?
The value was 13.6 fold.

What about the “Fold Change HPDL” value (MiaPaCa-2 cells [3]; RNA synthesis, 24 h vs control) of the same molecule?
The value was −2.4 fold.

What about the “Fold Change HSPA5” value (MiaPaCa-2 cells [3]; RNA synthesis, 24 h vs control) of the same molecule?
Its value is 7.9 fold.

And the “Fold Change LOC344887” value (MiaPaCa-2 cells [3]; RNA synthesis, 24 h vs control)?
The value was 16.7 fold.

What about the “Fold Change MAP1LC3B” value (MiaPaCa-2 cells [3]; RNA synthesis, 24 h vs control) of the same molecule?
The value was 6.9 fold.

And the “Fold Change MXD3” value (MiaPaCa-2 cells [3]; RNA synthesis, 24 h vs control)?
The value was −2.3 fold.

What about the “Fold Change NAT14” value (MiaPaCa-2 cells [3]; RNA synthesis, 24 h vs control) of the same molecule?
The value was −2.4 fold.

What about the “Fold Change OSGIN1” value (MiaPaCa-2 cells [3]; RNA synthesis, 24 h vs control) of the same molecule?
The value was 8.0 fold.

What about the “Fold Change PRKCDBP” value (MiaPaCa-2 cells [3]; RNA synthesis, 24 h vs control) of the same molecule?
Its value is −2.3 fold.

What about the “Fold Change RANGRF” value (MiaPaCa-2 cells [3]; RNA synthesis, 24 h vs control) of the same molecule?
The value was −2.3 fold.

And the “Fold Change RNASEH2C” value (MiaPaCa-2 cells [3]; RNA synthesis, 24 h vs control)?
Its value is −2.3 fold.

What about the “Fold Change RPL23AP32” value (MiaPaCa-2 cells [3]; RNA synthesis, 24 h vs control) of the same molecule?
The value was −2.3 fold.

What about the “Fold Change SAT1” value (MiaPaCa-2 cells [3]; RNA synthesis, 24 h vs control) of the same molecule?
Its value is 7.2 fold.

What about the “Fold Change SCARNA10” value (MiaPaCa-2 cells [3]; RNA synthesis, 24 h vs control) of the same molecule?
The value was −2.4 fold.

What about the “Fold Change SEMA6B” value (MiaPaCa-2 cells [3]; RNA synthesis, 24 h vs control) of the same molecule?
The value was −2.4 fold.

What about the “Fold Change SLC37A4” value (MiaPaCa-2 cells [3]; RNA synthesis, 24 h vs control) of the same molecule?
The value was −2.3 fold.

And the “Fold Change SLFN5” value (MiaPaCa-2 cells [3]; RNA synthesis, 24 h vs control)?
Its value is 10.1 fold.

And the “Fold Change TERC” value (MiaPaCa-2 cells [3]; RNA synthesis, 24 h vs control)?
Its value is −2.4 fold.

And the “Fold Change THAP11” value (MiaPaCa-2 cells [3]; RNA synthesis, 24 h vs control)?
The value was −2.5 fold.

And the “Fold Change TRIB3” value (MiaPaCa-2 cells [3]; RNA synthesis, 24 h vs control)?
The value was 14.3 fold.

And the “Fold Change UPP1” value (MiaPaCa-2 cells [3]; RNA synthesis, 24 h vs control)?
Its value is 18.4 fold.

And the “Fold Change WIPI1” value (MiaPaCa-2 cells [3]; RNA synthesis, 24 h vs control)?
Its value is 15.3 fold.

And the “Fold Change ZDHHC12” value (MiaPaCa-2 cells [3]; RNA synthesis, 24 h vs control)?
The value was −2.4 fold.

And the IC50 (SNU398)?
Its IC50 is 1900 nM.

And the IC50 (BxPC-3; BXPC-3, read-out: IC50 BxPC-3)?
Its IC50 is 3.3 µM.

And the IC50 (BxPC-3; BXPC-3, read-out: IC50 Values BxPC-3)?
The IC50 was 3.3 ± 0.26 µM.

And the “protein levels of stress responsive markers HSPA5, DDIT3, ATF3 and GDF15” value (GRP78, CHOP, ATF3, GDF15)?
The value was “dose dependent upregulation”.

And the IC50 (HCT116 p53+/+)?
Its IC50 is about 100 nM.

What about the IC50 (Ovcar 8) of the same molecule?
The IC50 was 300 nM.
